Data from US20250230193A1, “CYCLIC COMPOUND HAVING SELECTIVE KRAS INHIBITORY EFFECT ON HRAS AND NRAS” (CHUGAI SEIYAKU KABUSHIKI KAISHA, priority 2022, published 2025).
Where a SMILES comes first, the peptide text is derived from it. Bridges are numbered along the chain shown (N, C = ends). [ ]: non-standard residue; d: D form. The star is where a group is joined. hPhe(3-Cl-4-CF3) = N[C@@H](CCc1ccc(C(F)(F)F)c(Cl)c1)C(=O)O; NPrPhe(4-CF3) = CCCN[C@@H](Cc1ccc(C(F)(F)F)cc1)C(=O)O; NMeGly(cPent) = CN[C@H](C(=O)O)C1CCCC1; Pro(4,4-F2) = O=C(O)[C@@H]1CC(F)(F)CN1; NMeD = CN[C@@H](CC(=O)O)C(=O)O; NMeL = CN[C@@H](CC(C)C)C(=O)O; Morpholide = C1CN(*)CCO1; Ac5c = NC1(C(=O)O)CCCC1; Aze = O=C(O)[C@@H]1CCN1; Ac4c = NC1(C(=O)O)CCC1; Sar = CNCC(=O)O

Tests used:
[1] = target: GDP-bound HRAS wild-type protein (Homo sapiens, UniProt P01112); assay: Binding to HRAS by surface plasmon resonance (SPR), Single Cycle Kinetics
[2] = target: GDP-bound NRAS wild-type protein (Homo sapiens, UniProt P01111); assay: Binding to NRAS by surface plasmon resonance (SPR), Single Cycle Kinetics
[3] = SPR, GDP-bound wild-type proteins

GDP-bound HRAS wild-type protein, sequence (P01112 whole entry): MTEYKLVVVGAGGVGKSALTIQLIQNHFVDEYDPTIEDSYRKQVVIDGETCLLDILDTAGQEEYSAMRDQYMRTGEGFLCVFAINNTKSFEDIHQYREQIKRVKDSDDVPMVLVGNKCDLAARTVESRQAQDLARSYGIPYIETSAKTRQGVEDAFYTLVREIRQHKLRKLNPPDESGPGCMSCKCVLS
GDP-bound NRAS wild-type protein, sequence (P01111 whole entry): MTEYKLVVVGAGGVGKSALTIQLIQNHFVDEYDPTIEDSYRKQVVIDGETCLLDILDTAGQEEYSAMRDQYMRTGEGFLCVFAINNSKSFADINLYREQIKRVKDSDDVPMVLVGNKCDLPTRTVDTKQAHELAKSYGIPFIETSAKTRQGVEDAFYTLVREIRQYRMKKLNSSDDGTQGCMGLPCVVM

CCCN1C(=O)CN(C)C(=O)[C@@H]2CCN2C(=O)[C@H]([C@@H](C)CC)NC(=O)[C@H](CC(C)C)N(C)C(=O)C[C@@H](C(=O)N2CCOCC2)N(C)C(=O)[C@H](C2CCCC2)N(C)C(=O)C2(CCC2)NC(=O)[C@@H]2CC(F)(F)CN2C(=O)[C@H](CCc2ccc(C(F)(F)F)c(Cl)c2)NC(=O)CN(C)C(=O)[C@@H]1Cc1ccc(C(F)(F)F)cc1 [PP0404] ([NMeL]I[Aze][Sar][NPrPhe(4-CF3)][Sar][hPhe(3-Cl-4-CF3)][Pro(4,4-F2)][Ac4c][NMeGly(cPent)][NMeD]-Morpholide; lactam N-11)
HRAS/KRAS (ratio of KD for GDP-bound HRAS wild-type to KD for KRAS) ([1]; SPR): C (A compound having a KD ratio of 0.1 or more and less than 3 is denoted as C)
NRAS/KRAS (ratio of KD for GDP-bound NRAS wild-type to KD for KRAS) ([2]; SPR): B (a compound having 3 or more and less than 10 is denoted as B)

CCCN1C(=O)[C@@H]2CCN2C(=O)[C@@H]2CCN2C(=O)[C@H]([C@@H](C)CC)NC(=O)[C@H](CC(C)C)N(C)C(=O)C[C@@H](C(=O)N2CCOCC2)N(C)C(=O)[C@H](C2CCCC2)N(C)C(=O)C2(CCCC2)NC(=O)[C@@H]2CCCN2C(=O)[C@H](CCc2ccc(C(F)(F)F)c(Cl)c2)NC(=O)CN(C)C(=O)[C@@H]1Cc1ccc(C(F)(F)F)cc1 [PP0168] ([NMeL]I[Aze][Aze][NPrPhe(4-CF3)][Sar][hPhe(3-Cl-4-CF3)]P[Ac5c][NMeGly(cPent)][NMeD]-Morpholide; lactam N-11)
HRAS/KRAS (ratio of KD for GDP-bound HRAS wild-type to KD for KRAS) ([1]; SPR): B (a compound having 3 or more and less than 10 is denoted as B)
NRAS/KRAS (ratio of KD for GDP-bound NRAS wild-type to KD for KRAS) ([2]; SPR): C (A compound having a KD ratio of 0.1 or more and less than 3 is denoted as C)

CCC[C@H]1C(=O)N[C@@H]([C@@H](C)CC)C(=O)N(C)CC(=O)N(C)[C@H]2C/C=C\CCN(C2=O)[C@@H](Cc2ccc(C)cc2)C(=O)N(C)CC(=O)N[C@@H](CCc2ccc(C(F)(F)F)c(OC)c2)C(=O)N2C[C@H](OCC)C[C@H]2C(=O)N(C)C2(CCC2)C(=O)N(C)[C@@H](C2CCCC2)C(=O)N(C)[C@H](C(=O)N2CCCCC2)CC(=O)N1C [PP3104, (2S,8S,12R,14S,20S,23S,27S,30S,36S,38Z)-20-cyclopentyl-12-ethoxy-8-[2-[3-methoxy-4-(trifluoromethyl)phenyl]ethyl]-4,16,19,22,26,32,35-heptamethyl-30-[(1S)-1-methylpropyl]-23-(piperidine-1-carbonyl)-27-propyl-2-(p-tolylmethyl)spiro[1,4,7,10,16,19,22,26,29,32,35-undecazatricyclo[34.5.1.0^10,14]dotetracont-38-ene-17,1′-cyclobutane]-3,6,9,15,18,21,25,28,31,34,42-undecone]
HRAS/KRAS (ratio of KD value with respect to GDP-bound HRAS wild-type protein to KD value with respect to KRAS) [1, 3]: A (a compound having 10 or more and less than 20 is denoted as A)
NRAS/KRAS (ratio of KD value with respect to GDP-bound NRAS wild-type protein to KD value with respect to KRAS) [2, 3]: A (a compound having 10 or more and less than 20 is denoted as A)

CCO[C@@H]1C[C@H]2C(=O)NC3(CCC3)C(=O)N(C)[C@@H](C3CCCC3)C(=O)N(C)[C@H](C(=O)N(C)C)CC(=O)N(C)[C@@H](CC3CCCC3)C(=O)N[C@@H]([C@@H](C)CC)C(=O)N(C)CC(=O)N(C)[C@H]3C/C=C\CCN(C3=O)[C@@H](Cc3ccc(C(F)(F)F)cc3)C(=O)N(C)CC(=O)N[C@@H](CCc3ccc(C(F)(F)F)c(Cl)c3)C(=O)N2C1 [PP2842]
HRAS/KRAS (ratio of KD value with respect to GDP-bound HRAS wild-type protein to KD value with respect to KRAS) ([1]; class symbols): B (a compound having 3 or more and less than 10 is denoted as B)
NRAS/KRAS (ratio of KD value with respect to GDP-bound NRAS wild-type protein to KD value with respect to KRAS) ([2]; class symbols): A (a compound having 10 or more and less than 20 is denoted as A)

CCO[C@@H]1C[C@H]2C(=O)NC3(CCC3)C(=O)N(C)[C@@H](C3CCCC3)C(=O)N(C)[C@H](C3CCC3)CC(=O)N(C)[C@@H](CC3CC3)C(=O)N[C@@H]([C@@H](C)CC)C(=O)N(C)CC(=O)N(C)[C@H]3C/C=C\CCN(C3=O)[C@@H](Cc3ccc(C(F)(F)F)cc3)C(=O)N(C)CC(=O)N[C@@H](CCc3cc(F)c(C(F)(F)F)c(F)c3)C(=O)N2C1 [PP1637]
HRAS/KRAS (ratio of KD value for HRAS to KD value for KRAS) ([1]; KD ratio, GDP-bound HRAS wild-type vs GDP-bound KRAS wild-type, SPR): A (a compound having 10 or more and less than 20 is denoted as A)
NRAS/KRAS (ratio of KD value for NRAS to KD value for KRAS) ([2]; KD ratio, GDP-bound NRAS wild-type vs GDP-bound KRAS wild-type, SPR): A (a compound having 10 or more and less than 20 is denoted as A)

CC[C@H](C)[C@@H]1NC(=O)[C@H](COC)N(C)C(=O)C[C@@H](C(=O)N(C)CC)N(C)C(=O)[C@H](C2CCCC2)N(C)C(=O)C2(CC(C)(C)C2)NC(=O)[C@@H]2C[C@H](C)CN2C(=O)[C@H](CCc2cc(F)c(C(F)(F)F)c(F)c2)NC(=O)CN(C)C(=O)[C@H](Cc2ccc(C)cc2)N2CC/C=C\C[C@@H](C2=O)N(C)C(=O)CN(C)C1=O [PP2437]
HRAS/KRAS (ratio of KD value with respect to HRAS to KD value with respect to KRAS) ([1]; SPR, GDP-bound HRAS wild-type vs GDP-bound KRAS wild-type): A (a compound having 10 or more and less than 20 is denoted as A)
NRAS/KRAS (ratio of KD value with respect to NRAS to KD value with respect to KRAS) ([2]; SPR, GDP-bound NRAS wild-type vs GDP-bound KRAS wild-type): A (a compound having 10 or more and less than 20 is denoted as A)
